Key:
[1] = system: subjects with schizophrenia who have predominant negative symptoms; experiment: Phase 2, 26-week placebo-controlled study of adjunctive pimavanserin for negative symptoms of schizophrenia: efficacy; assay type: in vivo, human; conditions: for NSA-16 total score vs placebo, effect size: Week 26; for NSA-16 total score, change from Baseline to Week 26: placebo −8.5
Description: This study is conducted as a Phase 2, 26-week, randomized, double-blind, placebo-controlled, multicenter, multinational outpatient study in subjects with schizophrenia who have predominant negative symptoms while on adequate treatment with an antipsychotic. Schizophrenia is defined by the Diagnostic and Statistical Manual of Mental Disorders, Fifth Edition (DSM-5), confirmed by a customized module of the Structured Clinical Interview for DSM-5, Clinical Trials Version (SCID-5-CT). This study enrolls approximately 403 subjects with predominant negative symptoms of schizophrenia. In the study, patients were randomized to receive either pimavanserin or placebo added to their current background antipsychotic treatment for 26 weeks in duration. At baseline all patients were started on a daily dose of 20 mg of pimavanserin or placebo with dose adjustments allowed up to 34 mg or down to 10 mg during the first eight weeks of treatment. Following week eight no further dose modifications were allowed for the remaining 18 weeks in the study.
The daily dose of the main antipsychotic must remain stable and may not be changed from Screening through the duration of the study. […] At the Weeks 2, 4, and 8 visits, the daily dose of pimavanserin may remain at 20 mg or it may be either increased to 34 mg (for symptom improvement) or decreased to 10 mg daily (if the 20 mg dose is not well tolerated). After the Week 8 visit, no study drug dose changes may be made. Clinic visits occurring after Baseline will be conducted at Weeks 2, 4, 8, 14, 20, and 26 (End-of-Study [EOS]/Early Termination [ET] visit).
The test products are pimavanserin 10 mg and 17 mg tablets or matching placebo. Daily doses of pimavanserin to be studied are 10 mg (provided as 1×10 mg pimavanserin tablet and 1× matching placebo); 20 mg (2×10 mg pimavanserin tablets); or 34 mg (2×17 mg pimavanserin tablets); or matching placebo (2× placebo tablets); delivered by mouth. Seventeen (17) mg of the active moiety is dosed as 20 mg of the salt pimavanserin tartrate; 10 mg of the active moiety is dosed as 11.8 mg of the salt pimavanserin tartrate. The duration of participation for individual subjects will be up to approximately 34 weeks.
Primary Efficacy Endpoint is the change from Baseline to Week 26 in the Negative Symptom Assessment-16 (NSA-16) total score.
Secondary Endpoints Key Secondary Endpoint is the change from Baseline to Week 26 in the Personal and Social Performance Scale (PSP) score.

[2] = system: scPCP-treated C57BL/6J mice; experiment: 10-min social interaction test in scPCP-treated mice; assay type: in vivo; conditions: pimavanserin 3 and 6 mg/kg ip, alone
Description: Negative symptoms model: The behavioral assay utilized to assess negative symptoms was social interaction (SI) task.
Briefly, mice were habituated to the test arena (i.e., the NOR box) for 30 minutes prior to the test day. Pairs of mice, unfamiliar to each other, received either the same treatment (e.g., vehicle and vehicle; N=10 pairs) or different treatments (e.g., vehicle; N=10 and phencyclidine (PCP) 10 mg/kg; N=10). After washout, they were placed in the test arena together for 10 minutes. A heavy object made of Plexiglas or metal was placed in the center of the test arena to quantify the time and nature of interaction of the test animals with an unfamiliar object or an unfamiliar animal. After the 10 min test phase, the object and the arena were cleaned with 70% ethanol to remove any olfactory trails. Behavior was recorded on video for subsequent blind scoring.
The following four behaviors were scored for each animal: • a) Sniffing: A normal mouse engages in sniffing the con-specific mouse's body, including the anogenital area • b) Following: A normal mouse pursues a con-specific mouse around the arena • c) Avoiding: A normal mouse avoids the con-specific mouse and move away from a pursuing mouse if approached • d) Object Exploration: A normal mouse explores the object that is placed in the center of the test arena.
scPCP treatment involved intraperitoneal injection (ip) of 10 mg/kg PCP to male C57BL/6J mice, twice daily (bid) for 7 days, followed by 7 days washout. To test the effect of atypical APD or pimavanserin in scPCP-treated mice (N=10 pairs of mice per group), risperidone was administered as 0.05 mg/kg ip or 0.2 mg/kg ip; and pimavanserin was administered as 3 mg/kg ip or 6 mg/kg ip to scPCP-treated mice 45 minutes prior to the commencement of the social interaction task in the 10 min social interaction test.

For `CC(C)COc1ccc(CNC(=O)N(Cc2ccc(F)cc2)C2CCN(C)CC2)cc1` [Pimavanserin, N-(4-Fluorophenylmethyl)-N-(1-methylpiperidin-4-yl)-N′-(4-(2-methylpropyloxy)phenylmethyl)carbamide], the “NSA-16 total score vs placebo, effect size” value ([1]; 34 mg dose) was 0.34, the “NSA-16 total score, change from Baseline to Week 26” value ([1]; all pimavanserin doses (10-34 mg daily), added to background antipsychotic) was −10.4 and the “NSA-16 total score vs placebo, effect size” value ([1]; all pimavanserin doses) was 0.21. For the same molecule, the “Personal and Social Performance Scale, change from Baseline to Week 26” value ([1]; key secondary endpoint, placebo 8.1) was 8.1, the “NSA-16 total score, change from Baseline to Week 26” value ([1]; patients who received the 34 mg fixed dose after week 8 (n=107)) was −11.6 and the “Restoration of SI deficit in scPCP-treated mice” value [2] was “did not restore SI deficit”.

— patent publication US20220288048A1, “PIMAVANSERIN FOR TREATING SCHIZOPHRENIA OR FOR TREATING PSYCHOSIS SECONDARY TO NEURODEGENERATIVE DISORDERS OR DEPRESSIVE DISORDER” (ACADIA Pharmaceuticals Inc., priority 2019, published 2022)
